# From patent US6548495B2, “Dihydro-benzo [B] [1,4] diazepin-2-one derivatives” (Hoffmann-La Roche Inc., priority 2002, dated 2003)
row,melting point,Compound
1,274 °C (dec.),"N#Cc1cccc(C2=Nc3ccc(-n4cc(C#N)c(-c5ccccc5)c4)cc3NC(=O)C2)c1 [Example 6, 1-[2-(3-Cyano-phenyl)-4-oxo-4,5-dihydro-3H-benzo[b][1,4]diazepin-7-yl]-4-phenyl-1H-pyrrole-3-carbonitrile]"
2,215 to 217 °C (dec.),"O=C1CC(c2cccc(I)c2)=Nc2ccc(-n3cccc3)cc2N1 [Example 7, 4-(3-Iodo-phenyl)-8-pyrrol-1-yl-1,3-dihydro-benzo[b][1,4]diazepin-2-one]"
3,238 to 239 °C (dec.),"NC(=O)c1cccc(C2=Nc3ccc(-n4cccc4)cc3NC(=O)C2)c1 [Example 8, 3-(4-oxo-7-Pyrrol-1-yl-4,5-dihydro-3H-benzo[b][1,4]diazepin-2-yl)-benzamide]"
4,> 207 °C (dec.),"COC(=O)c1cccn1-c1ccc2c(c1)NC(=O)CC(c1cccc(C#N)c1)=N2 [Example 15, 1-[2-(3-Cyano-phenyl)-4-oxo-4,5-dihydro-3H-benzo[b][1,4]diazepin-7-yl]-1H-pyrrole-2-carboxylic Acid Methyl Ester]"
5,198 to 201 °C,"CCOC(=O)c1csc(-c2cccc(C3=Nc4ccc(-n5cccc5)cc4NC(=O)C3)c2)n1 [Example 19, 2-[3-(4-oxo-7-Pyrrol-1-yl-4,5-dihydro-3H-benzo[b][1,4]diazepin-2-yl)-phenyl]-thiazole-4-carboxylic Acid Ethyl Ester]"
6,228 to 230 °C,"O=C1CC(c2cccc(-c3ocnc3C(=O)NCCO)c2)=Nc2ccc(-n3cccc3)cc2N1 [Example 24, 5-[3-(4-oxo-7-Pyrrol-1-yl-4,5-dihydro-3H-benzo[b][1,4]diazepin-2-yl)-phenyl]-oxazole-4-carboxylic Acid (2-Hydroxy-ethyl)-amide]"
7,240 to 242 °C,"O=C1CC(c2cccc(-c3nc(CO)co3)c2)=Nc2ccc(-n3cccc3)cc2N1 [Example 26, 4-[3-(4-Hydroxymethyl-oxazol-2-yl)-phenyl]-8-pyrrol-1-yl-1,3-dihydro-benzo[b][1,4]diazepin-2-one]"
8,213 to 215 °C,"CCOC(=O)c1nc(-c2cccc(C3=Nc4ccc(-n5cccc5)cc4NC(=O)C3)c2)cs1 [Example 28, 4-[3-(4-oxo-7-Pyrrol-1-yl-4,5-dihydro-3H-benzo[b][1,4]diazepin-2-yl)-phenyl]-thiazole-2-carboxylic Acid Ethyl Ester]"
9,248 to 250 °C,"Cc1cc(-c2cccc(C3=Nc4ccc(-n5cccc5)cc4NC(=O)C3)c2)on1 [Example 29, 4-[3-(3-Methyl-isoxazol-5-yl)-phenyl]-8-pyrrol-1-yl-1,3-dihydro-benzo[b][1,4]diazepin-2-one]"
10,267 to 269 °C,"NC(=O)c1nc(-c2cccc(C3=Nc4ccc(-n5cccc5)cc4NC(=O)C3)c2)cs1 [Example 30, 4-[3-(4-oxo-7-Pyrrol-1-yl-4,5-dihydro-3H-benzo[b][1,4]diazepin-2-yl)-phenyl]-thiazole-2-carboxylic Acid Amide]"
11,236 to 238 °C,"O=C1CC(c2cccc(-c3csc(C(=O)NCCO)n3)c2)=Nc2ccc(-n3cccc3)cc2N1 [Example 32, 4-[3-(4-oxo-7-Pyrrol-1-yl-4,5-dihydro-3H-benzo[b][1,4]diazepin-2-yl)-phenyl]-thiazole-2-carboxylic Acid (2-Hydroxy-ethyl)-amide]"
12,185 to 190 °C (dec.),"O=C1CC(c2cccc(-c3csc(CO)n3)c2)=Nc2ccc(-n3cccc3)cc2N1 [Example 33, 4-[3-(2-Hydroxymethyl-thiazol-4-yl)-phenyl]-8-pyrrol-1-yl-1,3-dihydro-benzo[b][1,4]diazepin-2-one]"

# The next lines start with the compound.
row,Compound,melting point
1,"Cc1cc(-c2cccc(C3=Nc4cc(N5CCOCC5)c(C(F)(F)F)cc4NC(=O)C3)c2)on1 [Example 3, 4-[3-(3-Methyl-isoxazol-5-yl)-phenyl]-7-morpholin-4-yl-8-trifluoromethyl-1,3-dihydro-benzo[b][1,4]diazepin-2-one]",170 °C
2,"N#Cc1cccc(C2=Nc3ccc(-n4cc(C#N)c(-c5ccccc5Cl)c4)cc3NC(=O)C2)c1 [Example 5, 4-(2-Chloro-phenyl)-1-[2-(3-cyano-phenyl)-4-oxo-4,5-dihydro-3H-benzo[b][1,4]diazepin-7-yl]-1H-pyrrole-3-carbonitrile]",252 °C (dec.)
3,"COCCOc1cc2c(cc1-n1cccc1)NC(=O)CC(c1cccc(C#N)c1)=N2 [Example 10, 3-[8-(2-Methoxy-ethoxy)-4-oxo-7-pyrrol-1-yl-4,5-dihydro-3H-benzo[b][1,4]diazepin-2-yl]-benzonitrile]",189 to 195 °C
4,"N#CCc1cc2c(cc1I)NC(=O)CC(c1cccc(-n3ccnc3)c1)=N2 [Example 37, [4-(3-Imidazol-1-yl-phenyl)-8-iodo-2-oxo-2,3-dihydro-1H-benzo[b][1,4]diazepin-7-yl]-acetonitrile]",243 to 245 °C
5,"O=C1CC(c2cccc(-c3cc(CO)no3)c2)=Nc2cc(N3CCOCC3)c(C(F)(F)F)cc2N1 [Example 39, 4-[3-(3-Hydroxymethyl-isoxazol-5-yl)-phenyl]-7-morpholin-4-yl-8-trifluoromethyl-1,3-dihydro-benzo[b][1,4]diazepin-2-one]",196 °C
6,"CN(C)Cc1cnnn1-c1cccc(C2=Nc3cc(N4CCOCC4)c(C(F)(F)F)cc3NC(=O)C2)c1 [Example 40, 4-[3-(5-Dimethylaminomethyl-[1,2,3]triazol-1-yl)-phenyl]-7-morpholin-4-yl-8-trifluoromethyl-1,3-dihydro-benzo[b][1,4]diazepin-2-one]",180 °C
7,"Cc1cc(-c2cccc(C3=Nc4cc(N5CCSCC5)c(C(F)(F)F)cc4NC(=O)C3)c2)on1 [Example 41, 4-[3-(3-Methyl-isoxazol-5-yl)-phenyl]-7-thiomorpholin-4-yl-8-trifluoromethyl-1,3-dihydro-benzo[b][1,4]diazepin-2-one]",230 to 233 °C
8,"COc1cc2c(cc1C(F)(F)F)NC(=O)CC(c1ccnc(C#N)c1)=N2 [Example 44, 4-(8-Methoxy-4-oxo-7-trifluoromethyl-4,5-dihydro-3H-benzo[b][1,4]diazepin-2-yl)-pyridine-2-carbonitrile]",227 °C
9,"COc1cc2c(cc1C(F)(F)F)NC(=O)CC(c1cccc(-c3cc(C)no3)c1)=N2 [Example 45, 7-Methoxy-4-[3-(3-methyl-isoxazol-5-yl)-phenyl]-8-trifluoromethyl-1,3-dihydro-benzo[b][1,4]diazepin-2-one]",225 °C
10,"O=C1CC(c2cccc(-n3cccn3)c2)=Nc2cc(N3CCOCC3)c(C(F)(F)F)cc2N1 [Example 49, 7-Morpholin-4-yl-4-(3-pyrazol-1-yl-phenyl)-8-trifluoromethyl-1,3-dihydro-benzo[b][1,4]diazepin-2-one]",166 °C
11,"O=C1CC(c2cccc(-n3cnnc3)c2)=Nc2cc(N3CCOCC3)c(C(F)(F)F)cc2N1 [Example 50, 7-Morpholin-4-yl-4-(3-[1,2,4]triazol-4-yl-phenyl)-8-trifluoromethyl-1,3-dihydro-benzo[b][1,4]diazepin-2-one]",233 to 236 °C
12,"O=C1CC(c2cccc(-n3nncc3CO)c2)=Nc2cc(F)c(C(F)(F)F)cc2N1 [Example 51, 7-Fluoro-4-[3-(5-hydroxymethyl-[1,2,3]triazol-1-yl)-phenyl]-8-trifluoromethyl-1,3-dihydro-benzo[b][1,4]diazepin-2-one]",197 to 199 °C
13,"CCOc1cc2c(cc1C(F)(F)F)NC(=O)CC(c1cccc(-n3nncc3CNC3CC3)c1)=N2 [Example 54, 4-[3-(5-Cyclopropylaminomethyl-[1,2,3]triazol-1-yl)-phenyl]-7-ethoxy-8-trifluoromethyl-1,3-dihydro-benzo[b][1,4]diazepin-2-one]",80 °C
14,"CCOc1cc2c(cc1C(F)(F)F)NC(=O)CC(c1cccc(-n3ccnn3)c1)=N2 [Example 56, 7-Ethoxy-4-(3-[1,2,3]triazol-1-yl-phenyl)-8-trifluoromethyl-1,3-dihydro-benzo[b][1,4]diazepin-2-one]",215 °C
15,"N#Cc1cccc(C2=Nc3cc(N4CCOCC4)c(C#N)cc3NC(=O)C2)c1 [Example 59, 2-(3-Cyano-phenyl)-8-morpholin-4-yl-4-oxo-4,5-dihydro-3H-benzo[b][1,4]diazepine-7-carbonitrile]",259 °C
16,"N#Cc1cc2c(cc1N1CCOCC1)N=C(c1cccc(-n3nncc3CO)c1)CC(=O)N2 [Example 60, 2-[3-(5-Hydroxymethyl-[1,2,3]triazol-1-yl)-phenyl]-8-morpholin-4-yl-4-oxo-4,5-dihydro-3H-benzo[b][1,4]diazepine-7-carbonitrile]",180 °C
17,"Cc1cc(-c2cccc(C3=Nc4cc(N5CCOCC5)c(C#N)cc4NC(=O)C3)c2)on1 [Example 61, 2-[3-(3-Methyl-isoxazol-5-yl)-phenyl]-8-morpholin-4-yl-4-oxo-4,5-dihydro-3H-benzo[b][1,4]diazepine-7-carbonitrile]",252 °C
18,"O=C1CC(c2cccc(-n3nncc3CO)c2)=Nc2cc(Cl)c(C(F)(F)F)cc2N1 [Example 63, 7-Chloro-4-[3-(5-hydroxymethyl-[1,2,3]triazol-1-yl)-phenyl]-8-trifluoromethyl-1,3-dihydro-benzo[b][1,4]diazepin-2-one]",198 °C
19,"O=C1CC(c2cccc(-n3ncnc3CO)c2)=Nc2cc(Cl)c(C(F)(F)F)cc2N1 [Example 64, 7-Chloro-4-[3-(5-hydroxymethyl-[1,2,4]triazol-1-yl)-phenyl]-8-trifluoromethyl-1,3-dihydro-benzo[b][1,4]diazepin-2-one]",212 °C
20,"Cc1cc(-c2cccc(C3=Nc4cc(Cl)c(C(F)(F)F)cc4NC(=O)C3)c2)on1 [Example 65, 7-Chloro-4-[3-(3-methyl-isoxazol-5-yl)-phenyl]-8-trifluoromethyl-1,3-dihydro-benzo[b][1,4]diazepin-2-one]",252 °C
21,"O=C1CC(c2cccc(-n3ncnc3CNC3CC3)c2)=Nc2cc(Cl)c(C(F)(F)F)cc2N1 [Example 66, 7-Chloro-4-[3-(5-cyclopropylaminomethyl-[1,2,4]triazol-1-yl)-phenyl]-8-trifluoromethyl-1,3-dihydro-benzo[b][1,4]diazepin-2-one]",191 °C
